Target: T1, mitochondrial DNA primase (LdmtPRI1) (Leishmania donovani, UniProt A0A3S7WXR7)
T1 construct: gene LdCL_230015100; recombinant histidine-tagged LdmtPRI1 (pET28a), purified from E. coli BL21
T1 sequence (A0A3S7WXR7 1-533): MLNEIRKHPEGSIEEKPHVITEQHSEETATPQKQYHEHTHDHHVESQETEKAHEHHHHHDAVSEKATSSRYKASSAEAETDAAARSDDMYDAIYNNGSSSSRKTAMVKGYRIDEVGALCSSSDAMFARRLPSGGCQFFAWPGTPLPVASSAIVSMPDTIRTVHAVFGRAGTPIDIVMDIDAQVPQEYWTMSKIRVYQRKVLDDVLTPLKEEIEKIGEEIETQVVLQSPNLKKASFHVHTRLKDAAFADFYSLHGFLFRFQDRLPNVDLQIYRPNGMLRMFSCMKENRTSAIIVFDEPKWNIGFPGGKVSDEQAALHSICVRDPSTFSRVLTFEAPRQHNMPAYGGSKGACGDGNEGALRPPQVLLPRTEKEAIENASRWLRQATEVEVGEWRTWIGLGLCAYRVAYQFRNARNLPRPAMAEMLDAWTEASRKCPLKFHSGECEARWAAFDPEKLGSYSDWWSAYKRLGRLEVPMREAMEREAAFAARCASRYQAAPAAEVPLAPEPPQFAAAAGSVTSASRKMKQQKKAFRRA
Assay: coupled primase-pyrophosphatase malachite green assay, purified enzyme
Assay type: biochemical

| SMILES | IC50 [nM] |
| --- | --- |
| C/C(=C(\CCOP(=O)(O)O)SC(=O)c1ccccc1)N(C=O)Cc1cnc(C)nc1N [benfotiamine] | 20.68 ± 0.03 |
| CCCCCOC(=O)Nc1nc(=O)n([C@@H]2O[C@H](C)[C@@H](O)[C@H]2O)cc1F [capecitabine] | 15.27 ± 0.03 |

— PMC10853515, “Identification of potential inhibitor against Leishmania donovani mitochondrial DNA primase through in-silico and in vitro drug repurposing approaches” (Scientific Reports, 2024)
